The target of experiment [1] is T1, PD-L1 in MDA-MR-231 cells (Homo sapiens, UniProt Q9NZQ7).
T1 construct: endogenous in cells; host or cells: MDA-MB-231
Kind of experiment: Effect on expression level of PD-L1 in MDA-MR-231 cells (FACS). It is filed as cell-based. The settings on record: 24 hours incubation, FACS detection of cell surface PD-L1. As to the method:
Experimental Example 2: Using MDA-MR-231 Cells to Detect the Effect of Compounds on the Expression Level of PD-L1
The use of a triple-negative breast cancer cell line (MDA-MB-231) is an indirect method to assess PD-L1 endocytosis. PD-L1 molecules on the cell surface can be degraded by lysosomal and proteasome pathways, and small molecule inhibitors are added to induce PD-L1 endocytosis. After co-incubating small molecules with MDA-MB-231 cells for 24 hours, flow cytometry (Fluorescence-activated Cell Sorting, FACS) is used to detect the content of PD-L1 on the cell surface, which can indirectly reflect the effect of small molecule-induced PD-L1 endocytosis. Flow cytometry (FACS) is used to detect the effect of the compounds of the present disclosure on the expression level of PD-L1 in MDA-MR-231 cells.
Phosphate buffer (DPBS), 1640 medium, penicillin-streptomycin, fetal bovine serum, non-essential amino acids, 2-hydroxy-1-ethanethiol (2-ME), human interferon γ, LIVE/DEAD staining solution, staining buffer, fixation buffer, 0.25% trypsin, EDTA, anti-human PD-L1, anti-human PD-L1 isotype.
1640 complete medium preparation: 50 mL of fetal bovine serum, 5 mL of non-essential amino acids, 5 mL of penicillin-streptomycin and 0.5 mL of 2-hydroxy-1-ethanethiol were added to 439.5 mL of 1640 medium, and evenly mixed.
10 mM EDTA preparation: 1 mL of 0.5M EDTA was added to 49 mL of DPBS, and evenly mixed.
1) MDA-MB-231 cell counting and plating: The culture flask was taken out, the medium was removed and the culture flask was rinsed once with DPBS. After the culture flask was rinsed, 3 mL of 0.25% trypsin was added to the culture flask and the culture flask was placed in a 37° C. incubator for 1.5 min. The culture flask was taken out, 9 mL of 1640 complete medium was added to stop the reaction, the cells was transferred to a 50 mL centrifuge tube, and centrifuged at 1000 rpm for 5 min at 37° C. An appropriate volume of medium was added to re-suspend the cells according to the number of cells, and the number of cells was counted with a cell counter. The cell concentration was adjusted to 5×10^5 cells/mL with medium. Planking: A volume of 200 μL of cell suspension was added to each well of a 96-well plate, ensure that the number of cells in each well was 1×10^5. The cells were incubated overnight in an incubator. 2) Drug incubation: 100-fold dilution of compounds were prepared, and the drug was subjected to a 5-fold gradient dilution. 2 μL of each 100-fold dilution of compounds were added to each well. The cells were incubated in an incubator at 37° C. for 24 hours. 3) PD-L1 cell staining and FACS detection: the culture plate was taken out and the supernatant medium was discarded. The cells were washed once with 200 μL 1×PBS. 100 μL of EDTA (final concentration of 10 mM) was added to the cell suspension, and the cell suspension was treated at 37° C. for 10 min. Then after the cell suspension was centrifuged at 1500 rpm for 5 min, the cell suspension was washed once with 200 μL of staining solution. Staining: anti-human PD-L1 (2 μL per well) and LIVE/DEAD staining solution (1:1000) were diluted in staining solution, 50 μL of the staining solution was added to each well, and the staining was conducted at 4° C. for 30 min. Then the solution was washed twice with 200 μL of staining solution. Fixation: 100 μL of fixing solution was added to each well, the fixation was conducted at 4° C. for 15 min. The solution was then washed twice with 200 μL of staining solution, and 150 μL of solution was added to re-suspend the cells, followed by FACS detection.
Table 2 provides the effects of the compounds of the examples of the present disclosure on the expression level of PD-L1 in MDA-MR-231 cells.

The target of a further experiment is PD1/PD-L1 (Homo sapiens, UniProt Q9NZQ7). The experiment is described as follows: NFAT activity test (TCR Activitor/PD-L1 CHO cells with PD-1/NFAT Reporter-Jurkat cells). Type of experiment: cell-based. Also noted: host or cells: TCR Activitor/PD-L1 CHO cells; PD-1/NFAT Reporter-Jurkat cells. As to conditions: TCR Activitor/PD-L1 CHO cells + PD-1/NFAT Reporter-Jurkat cells, 5 hours, luciferase; for IC50: read-out: IC50, inhibitory activity on PD1/PD-L1 binding (NFAT activity test). The text has this: Experimental Example 3: NFAT Activity Test
The engineered T cell expresses PD-1 molecules and T cell receptor (TCR) on the surface, which can activate the NFAT signaling pathway of T cells after co-culturing with engineered antigen presenting cells (APCs). Expression of PD-L1 molecules on APCs can effectively attenuate the NFAT signaling pathway in T cells. PD-L1 inhibitors can be used effectively block the PD-1/PD-L1 regulatory mechanism, thereby reversing the weakened NFAT signaling pathway. After being pretreated with APC, the small molecule is co-cultured with T cells, then the expression of luciferase was detected to indirectly reflect the activation of the NFAT pathway in T cells.
The PD1/PD-L1 NFAT detection kit was purchased from BPS Biosciences. Birght-Glo reagent was purchased from Promega. Nivo multi-label analyzer (PerkinElmer).
The TCR Activitor/PD-L1 CHO cells with a growth confluence of 80% were plated into the plate at 35,000 cells per well and placed in a 37° C. cell culture incubator overnight; the compounds to be tested were diluted 5-fold to the 8th concentration, from 20 μM to 0.25 nM, and the DMSO concentration was 2%, a double-well experiment was set up. The TCR Activitor/PD-L1 CHO cell supernatant was discarded, 50 μl of compound working solution was added to each well, incubated at 37° C. for 30 minutes; after the incubation was completed, 50 μL of PD-1/NFAT Reporter-Jurkat cell suspension with a concentration of 4*10^5 cells/mL was added to each well, incubated at 37° C. for 5 hours. After the incubation was completed, 100 μL Bright-Glo was added to each well, and after mixing, the chemiluminescence signal was detected by a Nivo multi-label analyzer.
Using the equation (sample−Min)/(Max−Min)×100% to convert the raw data into inhibition rate, and the IC50 value can be obtained by curve fitting with four parameters (obtained from log(inhibitor) vs. response—Variable slope mode in GraphPad Prism). Table 3 provides the inhibitory activity of the compounds of the examples of the present disclosure on PD1/PD-L1 binding.

T1 sequence (Q9NZQ7 19-290): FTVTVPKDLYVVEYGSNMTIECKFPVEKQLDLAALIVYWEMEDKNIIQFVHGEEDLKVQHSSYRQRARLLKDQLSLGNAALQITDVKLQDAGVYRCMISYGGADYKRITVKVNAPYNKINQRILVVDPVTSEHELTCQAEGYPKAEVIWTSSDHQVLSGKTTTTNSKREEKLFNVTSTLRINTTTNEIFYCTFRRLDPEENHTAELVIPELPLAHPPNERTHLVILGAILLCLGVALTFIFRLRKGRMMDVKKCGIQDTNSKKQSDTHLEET
PD1/PD-L1, sequence (Q9NZQ7 19-290): as above

For `Cc1cc(C(=O)Nc2cccc(-c3cccc(NC(=O)c4ccc(CNCCO)cn4)c3Cl)c2Cl)nc2c1CCN(CCO)C2` [Compound 5], the IC50 in experiment [1] came out at 0.0327 µM; at PD1/PD-L1, 0.0162 µM. On PD1/PD-L1, the “Maximum effect (induction fold)” value came out at 3.68 induction fold.

Regarding `Cc1cc(C(=O)Nc2cccc(-c3cccc(NC(=O)c4ccc(CNCCO)cn4)c3C)c2Cl)nc2c1CCN(CCO)C2` [Compound 9], in experiment [1], the IC50 was found to be 0.0411 µM. At PD1/PD-L1, the “Maximum effect (induction fold)” value stood at 3.77 induction fold and the IC50 is 0.0326 µM.

With `Cc1cc(C(=O)Nc2cccc(-c3cccc(NC(=O)c4ccc(CNCCO)cn4)c3C)c2Cl)nc2c1CCN(C1CCNCC1)C2` [Compound 14], the IC50 in experiment [1] was found to be 0.0969 µM.

Regarding `COc1nc(-c2cccc(-c3cccc(NC(=O)c4cc(C)c5c(n4)CN(CC(=O)O)CC5)c3Cl)c2C)cnc1CN1CC(O)C1` [Compound 22], the IC50 in experiment [1] was determined as 0.0797 µM. In addition, at PD1/PD-L1, the “Maximum effect (induction fold)” value worked out at 3.79 induction fold and the IC50 was determined as 0.0588 µM.

`COc1nc(-c2cccc(-c3cccc(NC(=O)c4cc(C)c5c(n4)CN(CCO)CC5)c3Cl)c2Cl)cnc1CN1CC(C)(O)C1` [Compound 25]: the IC50 in experiment [1] came out at 0.00997 µM; on PD1/PD-L1 it was 0.0292 µM. For the same molecule, the “Maximum effect (induction fold)” value on PD1/PD-L1 was 3.39 induction fold.

Turning to `COc1nc(-c2cccc(-c3cccc(NC(=O)c4cc(C)c5c(n4)CN(CC(C)(C)O)CC5)c3Cl)c2Cl)cnc1CN1CC(O)C1` [Compound 28], on PD1/PD-L1, the “Maximum effect (induction fold)” value came to 3.63 induction fold and the IC50 worked out at 0.0348 µM.

`COc1nc(-c2cccc(-c3cccc(NC(=O)c4cc(C)c5c(n4)CN(CC4(CO)CC4)CC5)c3Cl)c2Cl)cnc1CN1CC(O)C1` [Compound 29]: at PD1/PD-L1, the “Maximum effect (induction fold)” value was 3.52 induction fold and the IC50 amounted to 0.052 µM.

In experiment [1], `COc1nc(-c2cccc(-c3cccc(NC(=O)c4cc(C)c5c(n4)CN(CCO)CC5)c3Cl)c2Cl)ccc1CN1CC(O)C1` [Compound 37] yielded an IC50 of 0.0281 µM.

For `COc1nc(-c2cccc(-c3cccc(NC(=O)c4cc(C)c5c(n4)CCN(CCO)C5)c3Cl)c2Cl)cnc1CN1CC(O)C1` [Compound 43], at PD1/PD-L1, the “Maximum effect (induction fold)” value is reported as 5.16 induction fold and the IC50 was 0.242 µM.

Consider `COc1nc(-c2cccc(-c3cccc(NC(=O)c4cc(C)c5c(n4)CN(CC(C)O)CC5)c3Cl)c2Cl)cnc1CN1CC(O)C1` (stereo not drawn) [Compound 44], for which, at PD1/PD-L1, the “Maximum effect (induction fold)” value turned out to be 5.15 induction fold and the IC50 came out at 0.207 µM.

Take `COc1nc(-c2cccc(-c3cccc(NC(=O)c4cc(OCC#N)c5c(n4)CN(CCO)CC5)c3Cl)c2Cl)cnc1CN1CC(O)C1` [Compound 52]: at PD1/PD-L1, the “Maximum effect (induction fold)” value is 4.74 induction fold and the IC50 came out at 0.0515 µM.

Take `COc1cc(C(=O)Nc2cccc(-c3cccc(-c4cnc(CN5CC6(CC(O)C6)C5)c(OC)n4)c3Cl)c2Cl)nc2c1CCN(CCO)C2` [Compound 53]: at PD1/PD-L1, the “Maximum effect (induction fold)” value was 3.81 induction fold and the IC50 stood at 0.0137 µM.

With `COc1cc(C(=O)Nc2cccc(-c3cccc(-c4cnc(CNCCO)c(OC)n4)c3Cl)c2Cl)nc2c1CCN(CCO)C2` [Compound 54], on PD1/PD-L1, the “Maximum effect (induction fold)” value came to 3.91 induction fold and the IC50 was 0.0385 µM.

Regarding `COc1cc(C(=O)Nc2cccc(-c3cccc(-c4cnc(CN5CC(CO)C5)c(OC)n4)c3Cl)c2Cl)nc2c1CCN(CCO)C2` [Compound 55], at PD1/PD-L1, the “Maximum effect (induction fold)” value is given as 4.56 induction fold and the IC50 was 0.0252 µM.

Turning to `COc1cc(C(=O)Nc2cccc(-c3cccc(-c4cnc(CN5CCC(CO)C5)c(OC)n4)c3Cl)c2Cl)nc2c1CCN(CCO)C2` (stereo not drawn) [Compound 56], on PD1/PD-L1, the “Maximum effect (induction fold)” value is reported as 2.75 induction fold and the IC50 was found to be 0.0101 µM.

For the molecule `COc1nc(-c2cccc(-c3cccc(NC(=O)c4cc(C#N)c5c(n4)CN(CCO)CC5)c3Cl)c2Cl)cnc1CN1CC2(CC(O)C2)C1` [Compound 57], on PD1/PD-L1, the “Maximum effect (induction fold)” value is listed as 4.42 induction fold and the IC50 was 0.0407 µM.

As for `COc1nc(-c2cccc(-c3cccc(NC(=O)c4cc(C#N)c5c(n4)CN(CCO)CC5)c3Cl)c2Cl)cnc1CN1CC(C)(O)C1` [Compound 58], on PD1/PD-L1, the “Maximum effect (induction fold)” value was 5.01 induction fold and the IC50 was found to be 0.104 µM.

Consider `COc1nc(-c2cccc(-c3cccc(NC(=O)c4cc(C#N)c5c(n4)CN(CCO)CC5)c3Cl)c2Cl)cnc1CNCCO` [Compound 59], for which, on PD1/PD-L1, the “Maximum effect (induction fold)” value came out at 5.35 induction fold and the IC50 was 0.166 µM.

With `COc1nc(-c2cccc(-c3cccc(NC(=O)c4cc(C#N)c5c(n4)CN(CCO)CC5)c3Cl)c2Cl)cnc1CN1CC(CO)C1` [Compound 60], on PD1/PD-L1, the “Maximum effect (induction fold)” value amounted to 4.95 induction fold and the IC50 was 0.0555 µM.

On to `COc1nc(-c2cccc(-c3cccc(NC(=O)c4cc(C#N)c5c(n4)CN(CCO)CC5)c3Cl)c2Cl)cnc1CN1CCC(CO)C1` (stereo not drawn) [Compound 61], for which, on PD1/PD-L1, the “Maximum effect (induction fold)” value is 4.99 induction fold and the IC50 worked out at 0.0538 µM.

`COc1nc(-c2cccc(-c3cccc(NC(=O)c4cc(OC(F)F)c5c(n4)CN(CCO)CC5)c3Cl)c2Cl)cnc1CN1CC2(CC(O)C2)C1` [Compound 62]: at PD1/PD-L1, the “Maximum effect (induction fold)” value is given as 4.37 induction fold and the IC50 was 0.0135 µM.

In the case of `COc1nc(-c2cccc(-c3cccc(NC(=O)c4cc(OC(F)F)c5c(n4)CN(CCO)CC5)c3Cl)c2Cl)cnc1CN1CC(C)(O)C1` [Compound 63], at PD1/PD-L1, the “Maximum effect (induction fold)” value came out at 6.40 induction fold and the IC50 came out at 0.142 µM.

For the molecule `COc1nc(-c2cccc(-c3cccc(NC(=O)c4cc(OC(F)F)c5c(n4)CN(CCO)CC5)c3Cl)c2Cl)cnc1CN1CCC(CO)C1` (stereo not drawn) [Compound 64], at PD1/PD-L1, the “Maximum effect (induction fold)” value is 3.98 induction fold and the IC50 worked out at 0.0165 µM.

The record behind these values is patent publication US20220402917A1, “COMPOUND AS SMALL MOLECULE INHIBITOR PD-1/PD-L1 AND APPLICATION THEREOF” (MEDSHINE DISCOVERY INC., priority 2019, published 2022).
